In ChEMBL document CHEMBL1156251, “Structure--activity relationships of polymyxin antibiotics” (J Med Chem, 2010):
Values after ≈ are worked out from the molar mass of the structure shown. *1 amine or outer side, *2 acyl side, *3 side chain or, on linkers, in order; H or OH if unused. Where a SMILES comes first, the peptide text is derived from it. Bridges are numbered along the chain shown (N, C = ends). [ ]: non-standard residue; d: D form. The star is where a group is joined. X1 = NC(=O)[C@@H](CS[*:2])C(=O)[*:1]; Octanoyl = CCCCCCCC(=O)*; Dab = NCC[C@H](N)C(=O)O

What was measured:
Escherichia coli = experiment: Antimicrobial activity against Escherichia coli; format: functional
Salmonella enterica = experiment: Antimicrobial activity against Salmonella enterica; format: functional
Pseudomonas aeruginosa = experiment: Antimicrobial activity against Pseudomonas aeruginosa; format: functional, organism-based
Lipopolysaccharide (LPS) = experiment: Displacement of dansyl-PMB from LPS by isothermal titration calorimetry; settings: for IC50: read-out: IC50

Compound	MIC (Escherichia coli)	MIC (Salmonella enterica)	MIC (Pseudomonas aeruginosa)	IC50 (Lipopolysaccharide (LPS))	Ka (Lipopolysaccharide (LPS))
CC(=O)N[C@H](C(=O)N[C@@H](CCN)C(=O)N[C@H]1CCNC(=O)[C@H]([C@@H](C)O)NC(=O)[C@H](CCN)NC(=O)[C@H](CCN)NC(=O)[C@H](CC(C)C)NC(=O)[C@@H](CC(C)C)NC(=O)[C@H](CCN)NC1=O)[C@@H](C)O	128 µM (≈ 124 µg/mL)	> 512 µM	2 µM	–	–
CC(C)C[C@@H]1NC(=O)[C@@H](CC(C)C)NC(=O)[C@H](CCN)NC(=O)[C@@H](NC(=O)[C@H](CCN)NC(=O)[C@@H](NC(=O)[C@H](CCN)NC(=O)CC23CC4CC(CC(C4)C2)C3)[C@@H](C)O)CCNC(=O)[C@H]([C@@H](C)O)NC(=O)[C@H](CCN)NC(=O)[C@H](CCN)NC1=O	2 µM (≈ 2.41 µg/mL)	1 µM	1 µM	–	–
CC(C)C[C@@H]1NC(=O)[C@@H](CC(C)C)NC(=O)[C@H](CCN)NC(=O)[C@@H](NC(=O)[C@H](CCN)NC(=O)[C@@H](NC(=O)[C@H](CCN)NC(=O)Cc2ccc(-c3ccccc3)cc2)[C@@H](C)O)CCNC(=O)[C@H]([C@@H](C)O)NC(=O)[C@H](CCN)NC(=O)[C@H](CCN)NC1=O	1 µM (≈ 1.22 µg/mL)	2 µM	1 µM	–	–
CC(C)C[C@@H]1NC(=O)[C@@H](CC(C)C)NC(=O)[C@H](CCN)NC(=O)[C@@H](NC(=O)[C@H](CCN)NC(=O)[C@@H](NC(=O)[C@H](CCN)NC(=O)c2ccc3cc4ccccc4cc3c2)[C@@H](C)O)CCNC(=O)[C@H]([C@@H](C)O)NC(=O)[C@H](CCN)NC(=O)[C@H](CCN)NC1=O	4 µM (≈ 4.93 µg/mL)	2 µM	2 µM	–	–
C[C@@H](O)[C@H](N)C(=O)N[C@@H](CCN)C(=O)N[C@H]1CCNC(=O)[C@H]([C@@H](C)O)NC(=O)[C@H](CCN)NC(=O)[C@H](CCN)NC(=O)[C@H](Cc2ccccc2)NC(=O)[C@@H](Cc2ccccc2)NC(=O)[C@H](CCN)NC1=O	–	–	≥ 250 µg/mL	5 µM	–
C[C@@H]1NC(=O)[C@@H](Cc2ccccc2)NC(=O)[C@H](CCN)NC(=O)[C@@H](NC(=O)[C@H](CCN)NC(=O)[C@@H](N)[C@@H](C)O)CCNC(=O)[C@H]([C@@H](C)O)NC(=O)[C@H](CCN)NC(=O)[C@H](CCN)NC1=O	–	–	≥ 250 µg/mL	12 µM	–
CC(C)C[C@@H]1NC(=O)[C@@H](Cc2ccc(O)cc2)NC(=O)[C@H](CCN)NC(=O)[C@@H](NC(=O)[C@H](CCN)NC(=O)[C@@H](N)[C@@H](C)O)CCNC(=O)[C@H]([C@@H](C)O)NC(=O)[C@H](CCN)NC(=O)[C@H](CCN)NC1=O	–	–	≥ 500 µg/mL	25 µM	–
CC(C)C[C@@H]1NC(=O)[C@@H](Cc2c[nH]c3ccccc23)NC(=O)[C@H](CCN)NC(=O)[C@@H](NC(=O)[C@H](CCN)NC(=O)[C@@H](N)[C@@H](C)O)CCNC(=O)[C@H]([C@@H](C)O)NC(=O)[C@H](CCN)NC(=O)[C@H](CCN)NC1=O	–	–	≥ 500 µg/mL	4 µM	–
CC[C@H](C)[C@H](N)C(=O)N[C@@H](CCCCN)C(=O)N[C@H](C(=O)N[C@@H](CCCCN)C(=O)N[C@@H](CCCCN)C(=O)N[C@@H](Cc1ccccc1)C(=O)N[C@@H](CC(C)C)C(=O)N[C@@H](CCCCN)C(=O)N[C@@H](CCCCN)C(=O)N[C@H](C(=O)O)[C@@H](C)O)[C@@H](C)O (H-IKTKKFLKKT-OH)	–	–	–	–	0.2 10^5/M
CC(C)C[C@@H]1NC(=O)[C@H](Cc2ccccc2)NC(=O)[C@H](CCCCN)NC(=O)[C@@H](C(N)=O)CSSC[C@@H](C(N)=O)NC(=O)[C@H](CCCCN)NC(=O)[C@H](CCCCN)NC1=O (KFLKKC-NH2; linker N-6 via X1)	–	> 1000 µg/mL	–	–	1.15 10^5/M
CC(C)C[C@@H]1NC(=O)[C@H](Cc2ccccc2)NC(=O)[C@H](CCCCN)NC(=O)[C@@H](C(N)=O)CSSC[C@@H](C(=O)N[C@@H](CCCCN)C(=O)N[C@H](C(=O)NCC(=O)N[C@@H](CCCCN)C(=O)O)[C@@H](C)O)NC(=O)[C@H](CCCCN)NC(=O)[C@H](CCCCN)NC1=O (KFLKKCKTGK-OH; linker N-6 via X1)	–	> 1000 µg/mL	–	–	0.56 10^7/M
CC(C)C[C@@H]1NC(=O)[C@@H](Cc2ccccc2)NC(=O)[C@H](CCN)NC(=O)[C@@H](NC(=O)[C@H](CCN)NC(=O)[C@@H](NC(=O)[C@H](CCN)NC(=O)CC23CC4CC(CC(C4)C2)C3)[C@@H](C)O)CCNC(=O)[C@H]([C@@H](C)O)NC(=O)[C@H](CCN)NC(=O)[C@H](CCN)NC1=O [1-ADAMANTANEACETIC ACID POLYMIXIN B]	1 µM (≈ 1.24 µg/mL)	0.5 µM	1 µM	–	–
CC(C)C[C@@H]1NC(=O)[C@@H](Cc2ccccc2)NC(=O)[C@H](CCN)NC(=O)[C@@H](NC(=O)[C@H](CCN)NC(=O)[C@@H](NC(=O)[C@H](CCN)NC(=O)c2ccc3ccccc3c2)[C@@H](C)O)CCNC(=O)[C@H]([C@@H](C)O)NC(=O)[C@H](CCN)NC(=O)[C@H](CCN)NC1=O [2-ANTHRACENE CARBOXYLIC ACID POLYMIXIN B]	4 µM (≈ 4.87 µg/mL)	2 µM	2 µM	–	–
CC(C)C[C@@H]1NC(=O)[C@@H](Cc2ccccc2)NC(=O)[C@H](CCN)NC(=O)[C@@H](NC(=O)[C@H](CCN)NC(=O)[C@@H](NC(=O)[C@H](CCN)NC(=O)Cc2ccc(-c3ccccc3)cc2)[C@@H](C)O)CCNC(=O)[C@H]([C@@H](C)O)NC(=O)[C@H](CCN)NC(=O)[C@H](CCN)NC1=O [4-BIPHENYL ACETIC ACID POLYMIXIN B]	0.5 µM (≈ 0.629 µg/mL)	1 µM	1 µM	–	–
CC(C)C[C@@H]1NC(=O)[C@@H](Cc2ccccc2)NC(=O)[C@H](CCN)NC(=O)[C@@H](NC(=O)[C@H](CCN)NC(=O)[C@@H](NC(=O)[C@H](CCN)NC(=O)C2CCCCCCCCCCC2)[C@@H](C)O)CCNC(=O)[C@H]([C@@H](C)O)NC(=O)[C@H](CCN)NC(=O)[C@H](CCN)NC1=O [CYCLODEDECANE CARBOXYLIC ACID POLYMIXIN B]	2 µM (≈ 2.52 µg/mL)	2 µM	2 µM	–	–
CC(C)C[C@@H]1NC(=O)[C@@H](CC(C)C)NC(=O)[C@H](CCN)NC(=O)[C@@H](NC(=O)[C@H](CCN)NC(=O)[C@@H](NC(=O)[C@H](CCN)NC(=O)C2CCCCCCCCCCC2)[C@@H](C)O)CCNC(=O)[C@H]([C@@H](C)O)NC(=O)[C@H](CCN)NC(=O)[C@H](CCN)NC1=O [CYCLODODECANE CARBOXYLIC ACID COLISTIN]	4 µM (≈ 4.89 µg/mL)	2 µM	2 µM	–	–
CC(C)C[C@@H]1NC(=O)[C@@H](CC(C)C)NC(=O)[C@H](CCN)NC(=O)[C@@H](NC(=O)[C@H](CCN)NC(=O)[C@@H](NC(=O)[C@H](CCN)NC(=O)C(c2ccccc2)C2CCCC2)[C@@H](C)O)CCNC(=O)[C@H]([C@@H](C)O)NC(=O)[C@H](CCN)NC(=O)[C@H](CCN)NC1=O (stereo not given in full) [CYCLOPENTYLPHENYL ACETIC ACID COLISTIN]	16 µM (≈ 19.4 µg/mL)	16 µM	2 µM	–	–
CC(C)C[C@@H]1NC(=O)[C@@H](Cc2ccccc2)NC(=O)[C@H](CCN)NC(=O)[C@@H](NC(=O)[C@H](CCN)NC(=O)[C@@H](NC(=O)[C@H](CCN)NC(=O)C(c2ccccc2)C2CCCC2)[C@@H](C)O)CCNC(=O)[C@H]([C@@H](C)O)NC(=O)[C@H](CCN)NC(=O)[C@H](CCN)NC1=O (stereo not given in full) [CYCLOPENTYLPHENYL ACETIC ACID POLYMIXIN B]	8 µM (≈ 10 µg/mL)	8 µM	2 µM	–	–

More lines, now with the values ahead:

MIC (Escherichia coli)	MIC (Salmonella enterica)	MIC (Pseudomonas aeruginosa)	IC50 (Lipopolysaccharide (LPS))	Ka (Lipopolysaccharide (LPS))	Compound
32 µM (≈ 32.2 µg/mL)	128 µM	2 µM	–	–	CC(=O)N[C@H](C(=O)N[C@@H](CCN)C(=O)N[C@H]1CCNC(=O)[C@H]([C@@H](C)O)NC(=O)[C@H](CCN)NC(=O)[C@H](CCN)NC(=O)[C@H](CC(C)C)NC(=O)[C@@H](Cc2ccccc2)NC(=O)[C@H](CCN)NC1=O)[C@@H](C)O
4 µM (≈ 4.69 µg/mL)	4 µM	4 µM	–	–	CCCCCCCCCCCCCC(=O)N[C@H](C(=O)N[C@@H](CCN)C(=O)N[C@H]1CCNC(=O)[C@H]([C@@H](C)O)NC(=O)[C@H](CCN)NC(=O)[C@H](CCN)NC(=O)[C@H](CC(C)C)NC(=O)[C@@H](Cc2ccccc2)NC(=O)[C@H](CCN)NC1=O)[C@@H](C)O
0.5 µM (≈ 0.608 µg/mL)	0.5 µM	1 µM	–	–	CC(C)C[C@@H]1NC(=O)[C@@H](Cc2ccccc2)NC(=O)[C@H](CCN)NC(=O)[C@@H](NC(=O)[C@H](CCN)NC(=O)[C@@H](NC(=O)[C@H](CCN)NC(=O)CCCC2CCCCC2)[C@@H](C)O)CCNC(=O)[C@H]([C@@H](C)O)NC(=O)[C@H](CCN)NC(=O)[C@H](CCN)NC1=O
1 µM (≈ 1.42 µg/mL)	1 µM	1 µM	–	–	CCCCCCCC(=O)N[C@@H](CCNS(=O)(=O)c1cccc2c(N(C)C)cccc12)C(=O)N[C@H](C(=O)N[C@@H](CCN)C(=O)N[C@H]1CCNC(=O)[C@H]([C@@H](C)O)NC(=O)[C@H](CCN)NC(=O)[C@H](CCN)NC(=O)[C@H](CC(C)C)NC(=O)[C@@H](Cc2ccccc2)NC(=O)[C@H](CCN)NC1=O)[C@@H](C)O
2 µM (≈ 2.32 µg/mL)	2 µM	2 µM	–	–	CCCCCCCC(=O)N[C@@H](C)C(=O)N[C@H](C(=O)N[C@@H](CCN)C(=O)N[C@H]1CCNC(=O)[C@H]([C@@H](C)O)NC(=O)[C@H](CCN)NC(=O)[C@H](CCN)NC(=O)[C@H](CC(C)C)NC(=O)[C@@H](Cc2ccccc2)NC(=O)[C@H](CCN)NC1=O)[C@@H](C)O (Octanoyl-AT[Dab][Dab][Dab][dF]L[Dab][Dab]T; lactam 4-C)
8 µM (≈ 9.28 µg/mL)	4 µM	2 µM	–	–	CCCCCCCC(=O)N[C@@H](CCN)C(=O)N[C@@H](C)C(=O)N[C@@H](CCN)C(=O)N[C@H]1CCNC(=O)[C@H]([C@@H](C)O)NC(=O)[C@H](CCN)NC(=O)[C@H](CCN)NC(=O)[C@H](CC(C)C)NC(=O)[C@@H](Cc2ccccc2)NC(=O)[C@H](CCN)NC1=O (Octanoyl-[Dab]A[Dab][Dab][Dab][dF]L[Dab][Dab]T; lactam 4-C)
1 µM (≈ 1.16 µg/mL)	1 µM	2 µM	–	–	CCCCCCCC(=O)N[C@@H](CCN)C(=O)N[C@H](C(=O)N[C@@H](C)C(=O)N[C@H]1CCNC(=O)[C@H]([C@@H](C)O)NC(=O)[C@H](CCN)NC(=O)[C@H](CCN)NC(=O)[C@H](CC(C)C)NC(=O)[C@@H](Cc2ccccc2)NC(=O)[C@H](CCN)NC1=O)[C@@H](C)O (Octanoyl-[Dab]TA[Dab][Dab][dF]L[Dab][Dab]T; lactam 4-C)
1 µM (≈ 1.06 µg/mL)	4 µM	2 µM	–	–	CCCCCCCC(=O)N[C@H](C(=O)N[C@@H](CCN)C(=O)N[C@H]1CCNC(=O)[C@H]([C@@H](C)O)NC(=O)[C@H](CCN)NC(=O)[C@H](CCN)NC(=O)[C@H](CC(C)C)NC(=O)[C@@H](CC(C)C)NC(=O)[C@H](CCN)NC1=O)[C@@H](C)O [Octanoyl colistin nonapeptide]
